Source: ChEMBL document CHEMBL1201862, “PubChem BioAssay data set” (2004)
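Assay format: 96-well plates, 48-hour exposure. GI50 = concentration required for 50% inhibition of growth.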 Calls of active or inactive are those of the source. Cut-off read from the data, not from the text of the source: active = GI50 up to about 1.1 µM and inactive = higher.

Columns and labels:
Assay in all cases: NCI tumour cell line growth inhibition, 48 h
786-0 = system: 786-0
A549 = system: A549
ACHN = system: ACHN
CAKI-1 = system: CAKI-1
COLO 205 = system: COLO 205
DU-145 = system: DU-145
EKVX = system: EKVX
HCT-116 = system: HCT-116
HCT-15 = system: HCT-15
HL-60 = system: HL-60
HOP-62 = system: HOP-62
HT-29 = system: HT-29
Hs-578T = system: Hs-578T
IGROV-1 = system: IGROV-1
K562 = system: K562
KM12 = system: KM12
LOX IMVI = system: LOX IMVI
M14 = system: M14
MCF7 = system: MCF7
MDA-MB-231 = system: MDA-MB-231
MDA-MB-435 = system: MDA-MB-435
MOLT-4 = system: MOLT-4
Malme-3M = system: Malme-3M
NCI-H226 = system: NCI-H226
NCI-H23 = system: NCI-H23
NCI-H460 = system: NCI-H460
NCI-H522 = system: NCI-H522
NCI/ADR-RES = system: NCI/ADR-RES
OVCAR-3 = system: OVCAR-3
OVCAR-4 = system: OVCAR-4
OVCAR-5 = system: OVCAR-5
OVCAR-8 = system: OVCAR-8
PC-3 = system: PC-3
RXF 393 = system: RXF 393
SF-268 = system: SF-268
SF-295 = system: SF-295
SF-539 = system: SF-539
SK-MEL-28 = system: SK-MEL-28
SK-MEL-2 = system: SK-MEL-2
SK-MEL-5 = system: SK-MEL-5
SK-OV-3 = system: SK-OV-3
SN12C = system: SN12C
SNB-19 = system: SNB-19
SNB-75 = system: SNB-75
SR = system: SR
SW-620 = system: SW-620
T47D = system: T47D
TK-10 = system: TK-10
U-251 = system: U-251
UACC-257 = system: UACC-257
UACC-62 = system: UACC-62
UO-31 = system: UO-31
CCRF-CEM = system: CCRF-CEM
HCC 2998 = system: HCC 2998
MDA-N = system: MDA-N
RPMI-8226 = system: RPMI-8226

SMILES: COC(=O)C1c2cc3c(c(O)c2CCC1(C)O)C(=O)c1c(O)cc2c(c1C3=O)OC1OC2(C)C(O)C(N(C)C)C1O (stereo not given)
- GI50 (786-0): 1030 nM (active)
- GI50 (A549): 186 nM (active)
- GI50 (ACHN): 172 nM (active)
- GI50 (CAKI-1): < 10 nM (active)
- GI50 (COLO 205): 360 nM (active)
- GI50 (DU-145): 139 nM (active)
- GI50 (EKVX): 146 nM (active)
- GI50 (HCT-116): 245 nM (active)
- GI50 (HCT-15): 394 nM
- GI50 (HL-60): 1360 nM (inactive)
- GI50 (HOP-62): 254 nM (active)
- GI50 (HT-29): 205 nM (active)
- GI50 (Hs-578T): 338 nM (active)
- GI50 (IGROV-1): 1020 nM (active)
- GI50 (K562): 223 nM (active)
- GI50 (KM12): 345 nM (active)
- GI50 (LOX IMVI): 226 nM (active)
- GI50 (M14): 1750 nM (inactive)
- GI50 (MCF7): 800 nM (active)
- GI50 (MDA-MB-231): 207 nM (active)
- GI50 (MDA-MB-435): 1010 nM (active)
- GI50 (MOLT-4): 121 nM (active)
- GI50 (Malme-3M): 162 nM (active)
- GI50 (NCI-H226): 11.2 nM (active)
- GI50 (NCI-H23): 562 nM (active)
- GI50 (NCI-H460): 452 nM (active)
- GI50 (NCI-H522): 1100 nM (active)
- GI50 (NCI/ADR-RES): 1610 nM (inactive)
- GI50 (OVCAR-3): 99.1 nM (active)
- GI50 (OVCAR-4): 158 nM (active)
- GI50 (OVCAR-5): 263 nM (active)
- GI50 (OVCAR-8): 101 nM (active)
- GI50 (PC-3): 474 nM (active)
- GI50 (RXF 393): 205 nM (active)
- GI50 (SF-268): 906 nM (active)
- GI50 (SF-295): 382 nM (active)
- GI50 (SF-539): 1400 nM (inactive)
- GI50 (SK-MEL-28): 3150 nM (inactive)
- GI50 (SK-MEL-2): 4760 nM (inactive)
- GI50 (SK-MEL-5): 385 nM (active)
- GI50 (SK-OV-3): 1910 nM (inactive)
- GI50 (SN12C): 543 nM (active)
- GI50 (SNB-19): 221 nM (active)
- GI50 (SNB-75): 198 nM (active)
- GI50 (SR): < 10 nM (active)
- GI50 (SW-620): 140 nM (active)
- GI50 (T47D): 274 nM (active)
- GI50 (TK-10): 369 nM (active)
- GI50 (U-251): 436 nM (active)
- GI50 (UACC-257): 108 nM (active)
- GI50 (UACC-62): 421 nM (active)
- GI50 (UO-31): 1400 nM (inactive)

SMILES: COc1cccc(C2c3cc4c(cc3OC(N3CCOCC3)C2C)OCO4)c1OC (stereo not given)
- GI50 (786-0): 5220 nM (inactive)
- GI50 (A549): 9980 nM (inactive)
- GI50 (ACHN): 5330 nM (inactive)
- GI50 (CAKI-1): 2020 nM (inactive)
- GI50 (CCRF-CEM): 4520 nM (inactive)
- GI50 (COLO 205): 9040 nM (inactive)
- GI50 (DU-145): 3210 nM (inactive)
- GI50 (EKVX): 18100 nM (inactive)
- GI50 (HCC 2998): 10400 nM (inactive)
- GI50 (HCT-116): 2980 nM (inactive)
- GI50 (HCT-15): 4360 nM
- GI50 (HOP-62): 11400 nM (inactive)
- GI50 (HT-29): 2960 nM (inactive)
- GI50 (Hs-578T): 4260 nM (inactive)
- GI50 (IGROV-1): 3460 nM (inactive)
- GI50 (K562): 2070 nM (inactive)
- GI50 (KM12): 5680 nM (inactive)
- GI50 (LOX IMVI): 3060 nM (inactive)
- GI50 (M14): 9100 nM (inactive)
- GI50 (MCF7): 7910 nM (inactive)
- GI50 (MDA-MB-435): 10000 nM (inactive)
- GI50 (MDA-N): 13700 nM (inactive)
- GI50 (MOLT-4): 4280 nM (inactive)
- GI50 (NCI-H23): 14800 nM (inactive)
- GI50 (NCI-H460): 7710 nM (inactive)
- GI50 (NCI-H522): 4260 nM (inactive)
- GI50 (NCI/ADR-RES): 4580 nM (inactive)
- GI50 (OVCAR-3): 3040 nM (inactive)
- GI50 (OVCAR-5): 13100 nM (inactive)
- GI50 (OVCAR-8): 5680 nM (inactive)
- GI50 (PC-3): 11300 nM (inactive)
- GI50 (RPMI-8226): 6590 nM (inactive)
- GI50 (SF-268): 9590 nM (inactive)
- GI50 (SF-295): 2840 nM (inactive)
- GI50 (SF-539): 10600 nM (inactive)
- GI50 (SK-MEL-28): 13400 nM (inactive)
- GI50 (SK-MEL-2): 6410 nM (inactive)
- GI50 (SK-MEL-5): 9590 nM (inactive)
- GI50 (SN12C): 8070 nM (inactive)
- GI50 (SNB-19): 3810 nM (inactive)
- GI50 (SNB-75): 4880 nM (inactive)
- GI50 (SR): 4750 nM (inactive)
- GI50 (SW-620): 5400 nM (inactive)
- GI50 (T47D): 3200 nM (inactive)
- GI50 (TK-10): 15500 nM (inactive)
- GI50 (UACC-257): 8020 nM (inactive)
- GI50 (UACC-62): 15400 nM (inactive)
- GI50 (UO-31): 7030 nM (inactive)
